What was measured:
A549 cells [1] = assay: Cell-cycle analysis (PI staining, flow cytometry); format: cell-based, human; conditions: A549, 10 μM
Description: (§1) With the untreated A549 and NCI-H1299 cells, the percentage of cells in the G1 phase was at 21.29%, 18.96% with 15.28%, 22.94% in the G2/M phase, respectively.
(§2) Cell cycle was analyzed by flow cytometry as described previously. Data were analyzed with FlowJo software (TreeStar, Inc.).

NCI-H1299 cells [2] = assay: Cell-cycle analysis (PI staining, flow cytometry); format: cell-based, human; conditions: NCI-H1299, 10 μM
Description: as §1, §2

[3] = Pharmacokinetics, Pt in rat plasma after intravenous administration; format: in vivo, SD rats
Description: The pharmacokinetic profile of complex 3 was performed as compared with cisplatin. […] A non-compartment model was applied to analyze changes of pharmacokinetic behaviors. […] The results could be attributed to the biodistribution of the complex 3 in normal tissues as well as retention in blood circulation.
0.6 ml of blood compounds were collected from orbital cavity at 5 min followed by 0.5, 1, 2, 4, 8, 12 and 24 h after intravenous administration, heparinized and then centrifuged at 4000 rpm for 20 min at 4°C. The supernatant plasma was collected for measurement of Pt content using ICP-MS. The apparent plasma half-life time was calculated using a Phoenix Win Nonlin 6.3 Program (Pharsight Cooperation, St. Louis Missouri, USA).

A549 cells [4] = assay: Subcellular distribution of Pt (mitochondria, lysosomes, nucleus, residual); conditions: A549, 10 μM, 4 h, ICP-MS
Text: (§3) One of the main factors to determine the mechanism of cytotoxic activity of a metal-based drug is its ability to cross the cell membrane and to accumulate in cancer cells. Therefore, with the aim of correlating cellular accumulation, we investigated the cellular uptake of the platinum complexes in A549, NCI-H1299 cancer cells and L02 normal cell. […] Moreover, the amount of Pt in the different subcellular compartments of cancer cells was quantified to fetch a more detailed picture of Pt-based complexes intracellular localization (Figure 1C).
(§4) The cells were seeded in 6-well plates overnight and then incubated with 10 μM drugs at 37°C in standard culture conditions. After 4 h, the cells were washed with PBS buffer (pH 7.4) for three times, and harvested by trypsinization. […] The organelles were then isolated via differential centrifugation. All cellular compartments (mitochondria, lysosomes and nucleus) were isolated from A549 and NCI-H1299 cancer cells for direct comparative purposes. The supernatant phases discarded during the isolation of nuclei, lysosomes and mitochondria procedures were collected and formed the “residual” fraction. An aliquot of crude lysate after homogenization, nuclear, mitochondrial (pellet lysed via freeze and thaw cycles followed by 20 min incubation in ultrasonic bath), lysosomal and residual fraction was each used for protein quantification using the Bradford method. The harvested cells were concentrated and digested by nitric acid for the ICP measurement. The cell numbers were counted before the digested. For the measurement of Pt concentration in cellular DNA in A549, NCI-H1299 cancer cells, DNA was isolated by applying Genomic DNA Mini Preparation Kit (Beyotime, China), and Pt content in DNA was analyzed by ICP.

NCI-H1299 cells [5] = assay: as above; conditions: NCI-H1299, 10 μM, 4 h, ICP-MS
Text: as §3, §4

[6] = Blood stability test with rat plasma (ICP-MS); format: in vitro ADME; conditions: 37°C, 10 μM (method: 50 μM)
Description: Thus, we investigated the stability of complex 3 in rat plasma via ICP-MS measurement. Fresh rat plasma was added with a DMSO solution of complex 3 (10 μM). After incubation for 0, 2, 4 and 8 h at 37°C, the Pt content in rat plasma was measured by ICP-MS. […] This interaction contributes to the promising stability of complex 3 in rat plasma.
At varying time points (0, 2, 4 and 8 h) at 37°C, a 300 μL aliquot was removed from the incubating blood. The ICP-MS measurement was served to confirm the blood stability of complex 3 in rat plasma.

p-Akt = assay: Western blot of PI3K/Akt/mTOR pathway; format: cell-based, human; conditions: A549, 10 μM, 24 h, relative to control
Text: The mammalian target of rapamycin (mTOR) kinase is used to regulate autophagy as controlled though oxidative stress, hypoxia and growth receptors. The phosphatidylinosital-3 kinase (PI3K)/Akt signaling pathway activates mTOR through phosphorylating and inactivating the tuberous sclerosis complex (TSC)1–TSC2 complex. Inhibition of mTOR results in activation of autophagy. […] At the same time, levels of the p-Akt protein decreased to 0.95-, 1.02-, and 0.39-folds, respectively (Figure 7B). […] As a results, the administration of complex 3 decreased levels of proteins in PI3K/Akt/mTOR signaling pathways.
Lysates were centrifuged at 12,000 g for 0.5 h at 4°C. The concentrations of total proteins were measured using the BCA assay method with Varioskan spectrofluorometer and spectrophotometer (Thermo, Waltham, MA) at 562 nm. Protein (20–100 μg) prepared from the indicated cells was loaded per lane and electrophoresed in 8% or 10% sodium dodecyl sulfate polyacrylamide gel electrophoresis (SDS-PAGE), and then transferred onto polyvinylidene difluoride (PVDF) Immobilon-P membrane (Bio-Rad, USA) using a transblot apparatus (Bio-Rad, USA). The membranes were blocked with 5% (w/v) non-fat milk at 0.5 h at 37°C, followed by overnight incubation at 4°C with primary antibodies diluted in PBST. After washing with PBST, the membranes were incubated for 1 h with an IRDye´800 conjugated secondary antibody diluted 1:20000 in PBST, and the labeled proteins were detected with an Odyssey Scanning System (Li-COR., Lincoln, Nebraska, USA).

A549 xenograft tumors = conditions: for tumor growth inhibition rate: 5 mg/kg i.v., complex 3 once every three days, oxaliplatin twice a week, tumor weight at end
Description: To evaluate the anti-tumor effect of complex 3 in vivo, an xenografts nude mice model of A549 cancer cells was performed. […] At the end of treatments, the tumor weight was measured to detect the antitumor activity of these measured groups. […] Because platinum-based drugs are well known for their toxic effects on the mean bodyweights of treated animals, the toxicity of complex 3 in the body weights of mice was assayed. […] The mice treated with the tested complex 3 were selected for histological analyses.
Thirty-five nude mice (BALB/c) with body weight range from 18–22 g, were supplied by Shanghai Laboratory Animal Center, China Academy of Sciences. Experimental protocols were in accordance with National Institutes of Health regulations and approved by the Institutional Animal Care and Use Committee. All animals were randomly divided into 5 groups. The A549 single-cell suspension in PBS (1×10^7 cells per mouse) was injected subcutaneously into the right oxter of nude mice. […] The control group was administered glucose. The tumor growth was monitored by measuring the perpendicular diameter of the tumor using calipers every two days and calculated according to the formula:
Tumor volume (mm^3) = 0.5 × length × width^2
Growth curves were plotted using the average tumor volume within each experimental group at the set time points. The whole group of mice was sacrificed after the last treatment, then tumor weight was evaluated as the antitumor activity of the corresponding groups, and the kidneys, livers and tumors were excised for immunohistochemistry analysis. The body weight and physical state of the mice were measured simultaneously as an indicator of systemic toxicity.

| SMILES | cell cycle phase blocked (A549 cells [1]) | cell cycle phase blocked (NCI-H1299 cells [2]) | t1/2, Pt concentration-time profile in rat plasma ([3]; rats, intravenous, 5 mg/kg oxaliplatin or equivalent dose) | share of intracellular Pt, nucleus (A549 cells [4]) | share of intracellular Pt, nucleus (NCI-H1299 cells [5]) | t1/2 in rat plasma (stability) [6] | levels of the p-Akt protein (p-Akt) | tumor growth inhibition rate (A549 xenograft tumors) | percentage of cells in the G1 phase (NCI-H1299 cells [2]; 72 h, untreated 18.96%) | t1/2, Pt concentration-time profile in rat plasma ([3]; rat, in vivo, iv, 5 mg/kg) | tumor volumes (A549 xenograft tumors; 5 mg/kg i.v. once every three days) | expressions of LC3 in tumor tissues (A549 xenograft tumors; immunoblotting) | bodyweights of mice during treatment (A549 xenograft tumors; mouse, in vivo) |
| --- | --- | --- | --- | --- | --- | --- | --- | --- | --- | --- | --- | --- | --- |
| O=C1[O][Pt]2([NH][C@@H]3CCCC[C@H]3[NH]2)[O]C1=O [Oxaliplatin, oxaliplatin, reference compound] | S phases were blocked | S phases were blocked | ~ 13.1 h | 63% | 57% | ~ 13.1 h | 0.95 folds | 34.48% | – | – | – | – | – |
| CC(C)C[NH+]1[C@@H]2CCCC[C@H]2[NH+](CC(C)C)[Pt-2]12[O]C(=O)CC(=O)[O]2 (some centres unmarked) [Complex 3] | G2/M phases of A549 and NCI-H1299 were blocked strikingly | G2/M phases of A549 and NCI-H1299 were blocked strikingly | – | 79% | 72% | 27.6 h | 1.02 folds | 67.96% | 60.29% | ~ 24.5 h | significantly decreased | increased expressions of LC3 in tumor tissues | increase of bodyweights |
